Test results reported in patent US20030199671A1, “Binding molecules for Fc-region polypeptides” (priority 2001, published 2003).
Like-named read-outs stand apart in the source and are kept apart here. Positions of bridges follow the written chain, without caps; N, C: chain ends. Residues, ends and D or L forms follow the SMILES beside them.

What was measured:
human IgG [1] = assay: Dynamic (mini-column) binding capacity
Experimental: (§1) These media were used to determine the effect of ligand density on human IgG binding capacity in both static (filterplate) and dynamic (mini-column) modes with commercial immobilized recombinant Protein A (Repligen, IPA400) at a single density as control.
The IgG solution was loaded onto the column at a flow rate of 0.2 ml/minute (170 cm/hr). […] At the end of the loading period, the column was washed with PBS until the absorbance at 280 nm of the column eluant returned to baseline. […] Neutralizing the pH of the eluted fractions was unnecessary since the total IgG eluted was determined by total protein absorbance at 280 nm.
To establish total media capacities, IgG was loaded onto the columns until the absorbances of the column load and flow through streams were identical (loading to full capacity). After washing the column to baseline, bound IgG was eluted and the total amount captured from this elution fraction determined. The total capacity of the media (mg IgG/ml media) as total IgG captured divided by the column bed volume was calculated.
Additionally, column capacities at 10% breakthrough were calculated from the online A280 measurements of column flowthrough streams. The A280 curves obtained for the column of interest and for an equivalent “blank” column containing hydrolyzed Sepharose FF 4 media were aligned. The difference in areas between these curves (for a retained and non-retained target) from the time of injection to the time at which the A280 value for the column of interest had risen to 10% of the maximum A280 absorbance (100%) obtained for the load solution at 100% IgG capture saturation (10% breakthrough) was graphically integrated. A standard curve was used to relate the integrated area to mg IgG bound and capacity calculated as total IgG bound divided by column bed volume.

human IgG [2] = assay: Static (filterplate) binding capacity
Experimental: as §1, with “control. Actual ligand densities obtained ranged from 0.17 to 3.2 μmole/ml media as confirmed by quantitative amino acid analysis.” for “control.”
After incubation of the samples, with shaking, at room temperature for one hour, the supernatant liquid from each well, containing unbound IgG, was collected by centrifugation into the cognate well of a collection plate. The assay plate was washed three times with PBST (200 μl/wash) and bound IgG was eluted from the media samples by incubation for 30-60 minutes at room temperature in 100 μl Elution Buffer (100 mM CAPS, pH 11.5). Eluates were collected by centrifugation for analysis. Protein concentrations were determined from A280 measurements and plotted as a function of mg human IgG bound per ml resin vs. mg human IgG applied per ml resin.
The amount of IgG captured (estimated from IgG recovered in the elution step) by the various media is dependent upon both the IgG concentration and the ligand density. […] Under these static conditions, where both ligand and target concentrations are close to KD values, equilibrium binding is established and total capacities cannot be accurately determined. However, over the IgG range of 0 to 25 mg IgG applied per ml resin (0 to 2.5 mg/ml target added to 10 μl of resin), capture of IgG is linear. Beyond this point, up to a level of 200 mg IgG applied per ml resin, saturation becomes more pronounced.

human plasma IgG1 = biological target: T1, human plasma IgG1 (Homo sapiens, UniProt P01857); assay: Fluorescence anisotropy binding, Oregon Green labeled peptide
T1 construct: the individual human plasma IgG isoforms: IgG1, IgG2, IgG3, or IgG4; purchased Calbiochem; host or cells: human plasma
Summary of the method: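 Oregon Green-labeled peptides binding to human plasma IgG isoforms measured by fluorescence anisotropy. Buffers with 0.01% Tween 20: 10 mM sodium citrate pH 4.0 with 500 mM NaCl; Tris-HCl pH 7.5 with 500 mM NaCl; 10 mM sodium bicarbonate pH 9.5 with or without 500 mM NaCl.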

human plasma IgG4 = biological target: T2, human plasma IgG4 (Homo sapiens, UniProt P01861); assay: Fluorescence anisotropy binding, fluorescein-labeled peptide
T2 construct: the individual human plasma IgG isoforms: IgG1, IgG2, IgG3, or IgG4; purchased Calbiochem; host or cells: human plasma

human plasma IgG3 = biological target: T3, human plasma IgG3 (Homo sapiens, UniProt P01860); assay: as above
T3 construct: the individual human plasma IgG isoforms: IgG1, IgG2, IgG3, or IgG4; purchased Calbiochem; host or cells: human plasma

[3] = biological target: Fc (mixture of human plasma IgG isoforms); assay: as above; conditions: pH 8.0, 0.05 M Tris-HCl, 0.2 M NaCl
Summary of the method: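 Fluorescence anisotropy with fluorescein-labeled peptide (20 nM or 2 nM) titrated with human plasma IgG isoform or mixed-IgG Fc target. Fc buffer 50 mM Tris-HCl, 200 mM NaCl, pH 8.0, 0.01% Tween 20; IgG buffer PBS, 0.01% Tween 20. Equilibrated 10 minutes at 30° C before polarization read.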

[4] = 10 nM Tris-HCl, 500 mM Sodium Chloride, pH 7.5, read-out: KD (μM) IgG1 pH 7.5 + salt
[5] = 10 mM Sodium Bicarbonate, 500 mM Sodium Chloride, pH 9.5, read-out: KD (μM) IgG1 pH 9.5 + salt
[6] = 10 mM Sodium Bicarbonate, pH 9.5, read-out: KD (μM) IgG1 pH 9.5 − salt
[7] = 10 mM Sodium Citrate, 500 mM Sodium Chloride, pH 4.0, read-out: KD (μM) IgG1 pH 4.0 + salt
[8] = 10 mM Sodium Citrate, pH 4.0, read-out: KD (μM) IgG1 pH 4.0 − salt
[9] = TBS, 0.01% Tween 20, pH 7.5, read-out: KD (μM) IgG1 TBS
[10] = pH 9.3, 0.01 M sodium bicarbonate
[11] = 10 mM Tris-HCl, pH 7.5, read-out: KD (μM) IgG1 pH 7.5 − salt

T3 sequence (P01860 1-377 isoform P01860-1): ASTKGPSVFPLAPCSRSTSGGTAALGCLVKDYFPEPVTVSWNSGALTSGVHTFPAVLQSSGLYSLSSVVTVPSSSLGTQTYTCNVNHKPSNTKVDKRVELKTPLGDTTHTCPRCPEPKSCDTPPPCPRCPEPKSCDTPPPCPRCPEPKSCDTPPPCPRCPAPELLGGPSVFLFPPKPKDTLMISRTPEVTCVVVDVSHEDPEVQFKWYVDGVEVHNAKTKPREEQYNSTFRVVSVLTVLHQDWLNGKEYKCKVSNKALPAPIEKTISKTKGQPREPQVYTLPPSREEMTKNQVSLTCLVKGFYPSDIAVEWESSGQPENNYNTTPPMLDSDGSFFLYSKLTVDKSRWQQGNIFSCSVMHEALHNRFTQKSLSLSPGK
T2 sequence (P01861 1-327 isoform P01861-1): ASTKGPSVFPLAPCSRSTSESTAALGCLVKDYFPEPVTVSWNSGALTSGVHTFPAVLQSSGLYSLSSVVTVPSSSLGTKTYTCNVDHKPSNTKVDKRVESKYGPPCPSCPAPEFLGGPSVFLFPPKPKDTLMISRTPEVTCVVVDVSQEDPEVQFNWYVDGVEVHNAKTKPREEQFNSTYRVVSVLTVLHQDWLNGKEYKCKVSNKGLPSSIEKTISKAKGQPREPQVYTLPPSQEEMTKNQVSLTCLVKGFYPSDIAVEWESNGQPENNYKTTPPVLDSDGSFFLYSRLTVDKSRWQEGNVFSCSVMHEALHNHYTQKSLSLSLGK
T1 sequence (P01857 1-330 isoform P01857-1): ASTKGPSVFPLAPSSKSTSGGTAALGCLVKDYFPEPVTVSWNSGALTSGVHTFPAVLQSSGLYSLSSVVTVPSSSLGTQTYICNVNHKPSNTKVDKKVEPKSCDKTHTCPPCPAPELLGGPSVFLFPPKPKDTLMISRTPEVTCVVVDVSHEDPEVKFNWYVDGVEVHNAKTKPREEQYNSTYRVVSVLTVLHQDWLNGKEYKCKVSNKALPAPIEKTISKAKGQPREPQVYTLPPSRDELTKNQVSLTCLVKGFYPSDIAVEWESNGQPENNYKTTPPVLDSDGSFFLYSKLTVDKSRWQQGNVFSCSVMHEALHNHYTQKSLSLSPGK

Molecule	Kd (human plasma IgG1; [4])	Kd (human plasma IgG1; [5])	Kd (human plasma IgG1; [6])	Kd (human plasma IgG1; [7])	Kd (human plasma IgG1; [8])	Kd (human plasma IgG1; [9])	Kd (human plasma IgG1; [11])	further results
Prot. A: immobilized recombinant Protein A (RepliGen Corp., product no. IPA-400), positive control [reference compound]	–	–	–	–	–	–	–	Capacity at 10% breakthrough as % of total dynamic capacity (human IgG [1]): about 75%; Capacity (mg IgG/mL resin) 10% Breakthrough (human IgG [1]; Ligand Density not determined): 12.9 mg IgG/mL resin; Capacity (mg IgG/mL resin) Total Dynamic (human IgG [1]; Ligand Density not determined): 16.3 mg IgG/mL resin; Capacity (mg IgG/mL resin) Static (human IgG [2]; Ligand Density not determined): 11.1 mg IgG/mL resin
CC(=O)N[C@@H](C)C(=O)NCC(=O)N[C@@H](C)C(=O)N[C@@H](C)C(=O)N[C@H](C(=O)N[C@H]1CSSC[C@@H](C(=O)N[C@H](C(=O)N[C@@H](CC(=O)O)C(=O)N[C@@H](CO)C(=O)N2CCC[C@H]2C(=O)NCC(=O)N2CCC[C@H]2C(=O)N[C@@H](CCC(=O)O)C(=O)NCC(=O)NCC(=O)NCC(=O)N[C@@H](CCCCN)C(N)=O)[C@@H](C)O)NC(=O)[C@H](Cc2ccccc2)NC(=O)[C@H](Cc2c[nH]c3ccccc23)NC(=O)[C@H](CCC(N)=O)NC(=O)[C@H](Cc2ccc(O)cc2)NC(=O)[C@H](Cc2ccc(O)cc2)NC(=O)[C@H](Cc2c[nH]c3ccccc23)NC(=O)[C@H](Cc2ccc(O)cc2)NC(=O)[C@H](CO)NC(=O)[C@H]([C@@H](C)O)NC(=O)[C@H](CO)NC1=O)[C@@H](C)O [DX398]	> 10 µM	> 10 µM	> 10 µM	> 10 µM	~2 µM	> 10 µM	–	–
CC(=O)NCC(=O)N[C@@H](CC(=O)O)C(=O)N[C@@H](CC(=O)O)C(=O)N[C@@H](CC(=O)O)C(=O)N[C@@H](Cc1c[nH]cn1)C(=O)N[C@H]1CSSC[C@@H](C(=O)N2CCC[C@H]2C(=O)N[C@@H](Cc2c[nH]cn2)C(=O)NCC(=O)N[C@@H](CCC(=O)O)C(=O)N2CCC[C@H]2C(=O)NCC(=O)N2CCC[C@H]2C(=O)N[C@@H](CCC(=O)O)C(=O)NCC(=O)NCC(=O)NCC(=O)N[C@@H](CCCCN)C(N)=O)NC(=O)[C@H](CCC(=O)O)NC(=O)[C@H](CO)NC(=O)[C@H](CC(N)=O)NC(=O)[C@H](Cc2ccccc2)NC(=O)[C@H](Cc2c[nH]c3ccccc23)NC(=O)[C@H](CCC(=O)O)NC(=O)[C@H](CCCNC(=N)N)NC(=O)[C@H](Cc2ccccc2)NC(=O)[C@H](Cc2c[nH]c3ccccc23)NC(=O)[C@H](Cc2ccc(O)cc2)NC1=O [DX252] (Ac-GDDDHCYWFREWFNSECPHGEPGPEGGGK-NH2; disulfide 6-17 (inferred))	–	–	–	–	–	–	–	Kd (human plasma IgG4; pH 5.7, 0.01 M Tris-acetate): > 10 µM; Kd (human plasma IgG4; pH 7.4, 0.01 M Tris-HCl): 2.1 to 3.4 µM; Kd (human plasma IgG4; pH 7.4, PBS, […] NaCl): > 10 µM; Kd (human plasma IgG4; [10]): > 10 µM; Kd (human plasma IgG3; pH 5.7, 0.01 M Tris-acetate): < 0.1 µM; Kd (human plasma IgG3; pH 7.4, 0.01 M Tris-HCl): 2.1 to 3.4 µM; Kd (human plasma IgG3; [10]): > 10 µM; Kd [3]: 5.1 ± 3 µM
CC(=O)N[C@@H](C)C(=O)NCC(=O)N1CCC[C@H]1C(=O)N[C@@H](Cc1c[nH]cn1)C(=O)N[C@@H](CC(N)=O)C(=O)N[C@H]1CSSC[C@@H](C(=O)N[C@@H](CCCCN)C(=O)N[C@@H](Cc2c[nH]c3ccccc23)C(=O)N[C@@H](Cc2ccccc2)C(=O)N2CCC[C@H]2C(=O)NCC(=O)N2CCC[C@H]2C(=O)N[C@@H](CCC(=O)O)C(=O)NCC(=O)NCC(=O)NCC(=O)N[C@@H](CCCCN)C(N)=O)NC(=O)[C@H](Cc2ccc(O)cc2)NC(=O)[C@H](Cc2c[nH]c3ccccc23)NC(=O)[C@H](Cc2ccc(O)cc2)NC(=O)[C@H](Cc2c[nH]cn2)NC(=O)[C@H](CC(=O)O)NC(=O)[C@H](CC(=O)O)NC1=O [DX389] (Ac-AGPHNCDDHYWYCKWFPGPEGGGK-NH2; disulfide 6-13 (inferred))	> 10 µM	> 10 µM	> 10 µM	> 10 µM	> 10 µM	> 10 µM	> 10 µM	–
Ac-GDRRACSRDWSGALVWCAGHEPGPEGGGK-NH2 (not fully specified (bridges); printed as Ac-GDRRACSRDWSGALVWCAGHEPGPEGGGK-NH2; cysteine pairing not given here) [DX253]	–	–	–	–	–	–	–	Capacity (mg IgG/mL resin) 10% Breakthrough (human IgG [1]; Ligand Density 0.17 μM/mL): 0.1 mg IgG/mL resin; Capacity (mg IgG/mL resin) Total Dynamic (human IgG [1]; Ligand Density 0.17 μM/mL): 0.6 mg IgG/mL resin; Capacity (mg IgG/mL resin) 10% Breakthrough (human IgG [1]; Ligand Density 0.84 μM/mL): 2.6 mg IgG/mL resin; Capacity (mg IgG/mL resin) Total Dynamic (human IgG [1]; Ligand Density 0.84 μM/mL): 5.8 mg IgG/mL resin; Capacity (mg IgG/mL resin) 10% Breakthrough (human IgG [1]; Ligand Density 1.45 μM/mL): 2.9 mg IgG/mL resin; Capacity (mg IgG/mL resin) Total Dynamic (human IgG [1]; Ligand Density 1.45 μM/mL): 6.4 mg IgG/mL resin; Capacity (mg IgG/mL resin) 10% Breakthrough (human IgG [1]; Ligand Density 2.75 μM/mL): 8.5 mg IgG/mL resin; Capacity (mg IgG/mL resin) Total Dynamic (human IgG [1]; Ligand Density 2.75 μM/mL): 24.1 mg IgG/mL resin; Capacity (mg IgG/mL resin) Static (human IgG [2]; Ligand Density 0.17 μM/mL): 1.1 mg IgG/mL resin; Capacity (mg IgG/mL resin) Static (human IgG [2]; Ligand Density 0.84 μM/mL): 8.5 mg IgG/mL resin; Capacity (mg IgG/mL resin) Static (human IgG [2]; Ligand Density 1.45 μM/mL): 13.5 mg IgG/mL resin; Capacity (mg IgG/mL resin) Static (human IgG [2]; Ligand Density 2.75 μM/mL): 17.4 mg IgG/mL resin
CC(=O)N[C@@H](C)C(=O)NCC(=O)N[C@@H](CCCCN)C(=O)N[C@@H](Cc1ccc(O)cc1)C(=O)N[C@@H](Cc1c[nH]c2ccccc12)C(=O)N[C@H]1CSSC[C@@H](C(=O)N2CCC[C@H]2C(=O)N[C@@H](C)C(=O)N[C@@H](CC(N)=O)C(=O)N2CCC[C@H]2C(=O)NCC(=O)N2CCC[C@H]2C(=O)N[C@@H](CCC(=O)O)C(=O)NCC(=O)NCC(=O)NCC(=O)N[C@@H](CCCCN)C(N)=O)NC(=O)[C@H](C(C)C)NC(=O)CNC(=O)[C@H](Cc2c[nH]c3ccccc23)NC(=O)[C@H](CC(C)C)NC(=O)[C@H](CC(N)=O)NC1=O [DX395]	> 10 µM	> 10 µM	> 10 µM	> 10 µM	> 10 µM	> 10 µM	> 10 µM	–
CC[C@H](C)[C@@H]1NC(=O)[C@H](CCCCN)NC(=O)[C@@H](NC(=O)[C@H](Cc2c[nH]c3ccccc23)NC(=O)[C@H](Cc2ccc(O)cc2)NC(=O)[C@H](CO)NC(=O)CNC(=O)[C@H](C)NC(C)=O)CSSC[C@@H](C(=O)N2CCC[C@H]2C(=O)N[C@@H](CCC(N)=O)C(=O)N[C@@H](CO)C(=O)N2CCC[C@H]2C(=O)NCC(=O)N2CCC[C@H]2C(=O)N[C@@H](CCC(=O)O)C(=O)NCC(=O)NCC(=O)NCC(=O)N[C@@H](CCCCN)C(N)=O)NC(=O)[C@H](C(C)C)NC(=O)[C@H](CC(=O)O)NC(=O)[C@H](Cc2c[nH]c3ccccc23)NC1=O [DX392] (Ac-AGSYWCKIWDVCPQSPGPEGGGK-NH2; disulfide 6-12 (inferred))	> 10 µM	> 10 µM	> 10 µM	> 10 µM	> 10 µM	> 10 µM	> 10 µM	–
